In US11312727B1, “Macrocyclic flu endonuclease inhibitors” (Janssen BioPharma, Inc., priority 2018, dated 2022):

Assays:
in vitro = details: human, CC50, uninfected A549 cells, CellTiter-Glo
[1] = tested on: Influenza strain A549 A/WSN/33 (H1N1); assay: microbe, parasite or virus in culture; type: cell-based; details: Influenza A virus, A549, 20 h, A549 cells, influenza A/WSN/33 (H1N1), 20 hours incubation; read-out: A549_A(H1N1) EC50

## O=C1c2c(O)c(=O)ccn2N2CN1C/C=C\COc1cc(F)c(F)cc1[C@@H]2c1ccccn1 (single isomer, unassigned) [Compound 70A, (18*R,*Z)-2,3-difluoro-12-hydroxy-18-(pyridin-2-yl)-6,9-dihydro-18H-10,17-methanobenzo[b]pyrido[1,2-f][1]oxa[5,6,9]triazacyclotridecine-11,13-dione]
In vitro
  CC50: > 20 µM
[1]
  EC50: > 10 µM

## O=C1c2c(O)c(=O)ccn2N2CN1C/C=C\COc1cc(F)c(F)cc1[C@H]2c1ccccn1 (single isomer, unassigned) [Compound 70B, (18*S,*Z)-2,3-difluoro-12-hydroxy-18-(pyridin-2-yl)-6,9-dihydro-18H-10,17-methanobenzo[b]pyrido[1,2-f][1]oxa[5,6,9]triazacyclotridecine-11,13-dione]
In vitro
  CC50: > 0.2 µM
[1]
  EC50: 0.032 µM

## O=C1c2c(O)c(=O)ccn2N2CN1C/C=C\COc1cc(F)ccc1[C@@H]2c1ccccn1 (single isomer, unassigned) [Compound 71A, (18*R,*Z)-3-fluoro-12-hydroxy-18-(pyridin-2-yl)-6,9-dihydro-18H-10,17-methanobenzo[b]pyrido[1,2-f][1]oxa[5,6,9]triazacyclotridecine-11,13-dione]
In vitro
  CC50: > 0.2 µM
[1]
  EC50: 0.034 µM

## O=C1c2c(O)c(=O)ccn2N2CN1C/C=C\COc1cc(F)ccc1[C@H]2c1ccccn1 (single isomer, unassigned) [Compound 71B, (18*S,*Z)-3-fluoro-12-hydroxy-18-(pyridin-2-yl)-6,9-dihydro-18H-10,17-methanobenzo[b]pyrido[1,2-f][1]oxa[5,6,9]triazacyclotridecine-11,13-dione]
In vitro
  CC50: > 20 µM
[1]
  EC50: 7.69 µM

## O=C1c2c(O)c(=O)ccn2N2CN1C/C=C\COc1cc(Cl)ccc1[C@H]2c1ccccc1 (single isomer, unassigned) [Compound 72A, (18*R,Z)-3-chloro-12-hydroxy-18-phenyl-6,9-dihydro-18H-10,17-methanobenzo[b]pyrido[1,2-f][1]oxa[5,6,9]triazacyclotridecine-11,13-dione]
In vitro
  CC50: > 2 µM
[1]
  EC50: > 1 µM

## O=C1c2c(O)c(=O)ccn2N2CN1C/C=C\COc1cc(Cl)ccc1[C@@H]2c1ccccc1 (single isomer, unassigned) [Compound 72B, (18*S,Z)-3-chloro-12-hydroxy-18-phenyl-6,9-dihydro-18H-10,17-methanobenzo[b]pyrido[1,2-f][1]oxa[5,6,9]triazacyclotridecine-11,13-dione]
In vitro
  CC50: > 2 µM
[1]
  EC50: 0.008 µM

## O=C1c2c(O)c(=O)ccn2N2CN1C/C=C\COc1c(ccc(F)c1F)[C@H]2c1ccccc1 (single isomer, unassigned) [Compound 74A, (18*R,Z)-3,4-difluoro-12-hydroxy-18-phenyl-6,9-dihydro-18H-10,17-methanobenzo[b]pyrido[1,2-f][1]oxa[5,6,9]triazacyclotridecine-11,13-dione]
In vitro
  CC50: > 2 µM
[1]
  EC50: > 1 µM

## O=C1c2c(O)c(=O)ccn2N2CN1C/C=C\COc1c(ccc(F)c1F)[C@@H]2c1ccccc1 (single isomer, unassigned) [Compound 74B, (18*S,Z)-3,4-difluoro-12-hydroxy-18-phenyl-6,9-dihydro-18H-10,17-methanobenzo[b]pyrido[1,2-f][1]oxa[5,6,9]triazacyclotridecine-11,13-dione]
In vitro
  CC50: > 0.2 µM
[1]
  EC50: 0.002 µM

## O=C1c2c(O)c(=O)ccn2N2CN1C/C=C\COc1c(Cl)cccc1[C@H]2c1ccccc1 (single isomer, unassigned) [Compound 75A, (18*R,Z)-4-chloro-12-hydroxy-18-phenyl-6,9-dihydro-18H-10,17-methanobenzo[b]pyrido[1,2-f][1]oxa[5,6,9]triazacyclotridecine-11,13-dione]
In vitro
  CC50: > 2 µM
[1]
  EC50: 0.269 µM

## O=C1c2c(O)c(=O)ccn2N2CN1C/C=C\COc1c(Cl)cccc1[C@@H]2c1ccccc1 (single isomer, unassigned) [Compound 75B, (18*S,Z)-4-chloro-12-hydroxy-18-phenyl-6,9-dihydro-18H-10,17-methanobenzo[b]pyrido[1,2-f][1]oxa[5,6,9]triazacyclotridecine-11,13-dione]
In vitro
  CC50: > 0.2 µM
[1]
  EC50: 0.003 µM

## O=C1c2c(O)c(=O)ccn2N2CN1CC/C=C/COc1cc(F)ccc1[C@@H]2c1ccccc1 (single isomer, unassigned) [Compound 77A, (7E,19*R)-3-fluoro-13-hydroxy-19-phenyl-9,10-dihydro-6H,19H-11,18-methanopyrido[2,1-i][1,7,10,11]benzoxatriazacyclotetradecine-12,14-dione]
In vitro
  CC50: 33.2 µM
[1]
  EC50: 5.28 µM

## O=C1c2c(O)c(=O)ccn2N2CN1C/C=C/CCc1ccccc1[C@H]2c1cccc(F)n1 (single isomer, unassigned) [Compound 78B, (16*S,E)-16-(6-fluoropyridin-2-yl)-4-hydroxy-7,10,11,16-tetrahydro-6,17-methanobenzo[k]pyrido[1,2-b][1,2,5]triazacyclotridecine-3,5-dione]
In vitro
  CC50: 61.6 µM
[1]
  EC50: 6.43 µM

## O=C1c2c(O)c(=O)ccn2N2CN1C[C@H]1C[C@@H]1COc1ccccc1[C@@H]2c1ccccc1 (single isomer, unassigned) [Compound 80AA, (1a*S,8*S,17a*S)-14-hydroxy-8-phenyl-1a,2,17,17a-tetrahydro-1H,8H-9,16-methanobenzo[b]cyclopropa[k]pyrido[1,2-f][1]oxa[5,6,9]triazacyclotridecine-13,15-dione]
In vitro
  CC50: > 1 µM
[1]
  EC50: 0.167 µM

## O=C1c2c(O)c(=O)ccn2N2CN1C[C@@H]1C[C@H]1COc1ccccc1[C@@H]2c1ccccc1 (single isomer, unassigned) [Compound 80AB, (1a*R,8*S,17a*R)-14-hydroxy-8-phenyl-1a,2,17,17a-tetrahydro-1H,8H-9,16-methanobenzo[b]cyclopropa[k]pyrido[1,2-f][1]oxa[5,6,9]triazacyclotridecine-13,15-dione]
In vitro
  CC50: > 10 µM
[1]
  EC50: 0.066 µM

## O=C1c2c(O)c(=O)ccn2N2CN1C[C@H]1C[C@@H]1COc1ccccc1[C@H]2c1ccccc1 (single isomer, unassigned) [Compound 80BA, (1a*S,8*R,17a*S)-14-hydroxy-8-phenyl-1a,2,17,17a-tetrahydro-1H,8H-9,16-methanobenzo[b]cyclopropa[k]pyrido[1,2-f][1]oxa[5,6,9]triazacyclotridecine-13,15-dione]
In vitro
  CC50: > 1 µM
[1]
  EC50: > 0.5 µM

## O=C1c2c(O)c(=O)ccn2N2CN1C[C@@H]1C[C@H]1COc1ccccc1[C@H]2c1ccccc1 (single isomer, unassigned) [Compound 80BB, (1a*R,8*R,17a*R)-14-hydroxy-8-phenyl-1a,2,17,17a-tetrahydro-1H,8H-9,16-methanobenzo[b]cyclopropa[k]pyrido[1,2-f][1]oxa[5,6,9]triazacyclotridecine-13,15-dione]
In vitro
  CC50: > 1 µM
[1]
  EC50: > 0.5 µM

## O=C1c2c(O)c(=O)ccn2N2CN1CCOC/C=C\c1cccc3c1[C@H]2c1ccccc1CC3 (single isomer, unassigned) [Compound 83A, (13Z,23b*R)-6-hydroxy-9,10,12,18,19,23b-hexahydro-1,8-methanobenzo[4,5]cyclohepta[1,2,3-qr]pyrido[1,2-c][9,2,3,6]benzoxatriazacyclotetradecine-5,7-dione]
In vitro
  CC50: > 1 µM
[1]
  EC50: > 0.5 µM
